Measurements published in patent US20260035376A1, “COMPOSITIONS AND METHODS FOR INHIBITION OF RAS” (TheRas, Inc., priority 2022, published 2026).

Key:
[1] = target: T1, Avi-KRAS G12D (1-169) GppNHp/RAF1 RBD-3×FLAG (52-151) (Homo sapiens, UniProt P01116, G12D); test: Disrupting RAS-effector binding HTRF assay, Raf1 RBD-KRAS G12D-GppNHp; settings: PPI HTRF, 50 nM Avi-KRAS G12D GppNHp, compound titration 30-0.0045 μM; read-out: Raf1 RBD-KRAS G12D-GppNHp disruption
T1 construct: 50 nM Avi-KRAS G12D (1-169) GppNHp/RAF1 RBD-3×FLAG (52-151)
Experimental: (§1) A protein:protein interaction (PPI) Homogeneous Time Resolved Fluorescence (HTRF) assay was used to determine the effectiveness of compounds of the present disclosure in disrupting KRAS protein and effector RAF1 binding.
(§2) The HTRF assay used the following reagents and proteins: (i) 50 nM Avi-KRAS G12D (1-169) GppNHp/RAF1 RBD-3×FLAG (52-151); (ii) 50 nM Avi-KRAS G12R (1-169) GppNHp/RAF1 RBD-3×FLAG (52-151); (iii) 50 nM Avi-KRAS G12V (1-169) GppNHp/RAF1 RBD-3×FLAG (52-151), (iv) 50 nM Avi-KRAS WT (1-169) GppNHp/RAF1 RBD-3×FLAG (52-151); and (v) 75 nM Avi-RAF1 RBD-3×FLAG. The assay buffer included: 50 mM Tris pH 7.5, 100 mM NaCl, 5 mM MgCl2, 0.1% BSA, […], 10% DMSO. The bead buffer included: 50 mM Tris pH 7.5, 0.01% o Tween 20. Assay volume of 20 μL was used in a 384 well plate-low volume format. Compound titration: 30-0.0045 μM, 3× dilution series.
(§3) The HTRF assay employed the following protocol:
(§4) Compounds were dispensed in assay plate (384-well, Grenier Bione #784075) using Echo (model 555) with dose response settings: 200 nL final volume, titration from 30 μM as a 10-point dilution series. Protein mix was prepared in assay buffer, and dispensed on plates, 10 μL per well, then incubated for 1 h at room temperature, with 700 rpm shaking. Reagents mix was prepared and dispensed on plates, 10 μL per well, then incubated for 1 h at room temperature, with 700 rpm shaking.
(§5) Plates were analyzed on an Envision plate reader using the following setting: Excitation 320 nm, Bandwidth 75 nM; Emission 615 nm, Bandwidth 85 nM, Gain 100%, Flashes 100, Lag 60 μs. Data were reported as percentage of activity, with DMSO as 100%. Data were plotted and analyzed using Prism 8.
(§6) The biochemical Raf1-KRAS G12D/G12R/G12V/WT-GppNHP disruption assay IC50 of selected compounds described herein are shown in Table 4.

[2] = target: T2, Avi-KRAS G12V (1-169) GppNHp/RAF1 RBD-3×FLAG (52-151) (Homo sapiens, UniProt P01116, G12V); test: Disrupting RAS-effector binding HTRF assay, Raf1 RBD-KRAS G12V-GppNHp; settings: PPI HTRF, 50 nM Avi-KRAS G12V GppNHp, compound titration 30-0.0045 μM; read-out: Raf1 RBD-KRAS G12V-GppNHp disruption
T2 construct: 50 nM Avi-KRAS G12V (1-169) GppNHp/RAF1 RBD-3×FLAG (52-151)
Experimental: as §1, §2, §3, §4, §5, §6

[3] = target: T3, Avi-KRAS G12R (1-169) GppNHp/RAF1 RBD-3×FLAG (52-151) (Homo sapiens, UniProt P01116, G12R); test: Disrupting RAS-effector binding HTRF assay, Raf1 RBD-KRAS G12R-GppNHp; settings: PPI HTRF, 50 nM Avi-KRAS G12R GppNHp, compound titration 30-0.0045 μM; read-out: Raf1 RBD-KRAS G12R-GppNHp disruption
T3 construct: 50 nM Avi-KRAS G12R (1-169) GppNHp/RAF1 RBD-3×FLAG (52-151)
Experimental: as §1, §2, §3, §4, §5, §6

[4] = target: T4, Avi-KRAS WT (1-169) GppNHp/RAF1 RBD-3×FLAG (52-151) (Homo sapiens, UniProt P01116); test: Disrupting RAS-effector binding HTRF assay, Raf1 RBD-KRAS WT-GppNHp; settings: PPI HTRF, 50 nM Avi-KRAS WT GppNHp, compound titration 30-0.0045 μM; read-out: Raf1 RBD-KRAS WT-GppNHp disruption
T4 construct: 50 nM Avi-KRAS WT (1-169) GppNHp/RAF1 RBD-3×FLAG (52-151)
Experimental: as §1, §2, §3, §4, §5, §6

[5] = test system: KRAS G12D protein/effector signaling in GP2d cells; test: Cell-based pERK HTRF assay in GP2d cell; settings: 60 min incubation
Experimental: A pERK assay (Perkin Elmer) was used to determine the effectiveness of compounds in disrupting KRAS G12D protein/effector signaling in cells.
On Day 1, cells (GP2d) were seeded into 96-well plates at 3×10^4 cells/well in 80 μL complete growth media (DMEM, 10% FBS).
On Day 2, cells were treated with compounds at 0.25% DMSO. The source plate was created with compounds diluted in media at 5-fold the final assay concentration. The compounds were run in a 9-point concentration curve starting at […], with a half-log dilution between concentrations. 20 μL was transferred onto the cell plates (final volume in wells was 100 μL). Plates were harvested after 60 min incubation by aspirating media and adding kit-supplied 1× supplemented lysis buffer to all wells (50 μL per well). Plates were then placed on a plate shaker and incubated at 850 rpm for an additional 30 min.
Antibody mixture solution was prepared by diluting aliquoted d2 and Eu Cryptate antibodies 1:20 in kit supplied detection buffer, and mixing the diluted antibodies solutions (1:1 v:v). 4 μL of this solution was then added to a 384-well detection plate (Perkin Elmer; 6008230).
Samples were homogenized by pipetting up and down and then transferred (16 μL of cell lysates) from the 96-well cell culture plate to two wells of the HTRF 384-well detection plate containing the antibody solution. Plates were centrifuged (524 g for 1 min) and allowed to incubate between 4 and 24 h at room temperature. Maximum signal was reached after 4 h incubation time and remained stable over a period of 24 hours. Therefore, readings could be made between 4 and 24 h of incubation. Plates were centrifuged again (524 g for 1 min), then analyzed on the EnVision plate reader using the following settings: Excitation 320 nm, Bandwidth 75 nm; Emission 615 nm, Bandwidth 85 nm; Gain 100%; Flashes 100; Lag 60 μs.

T1 sequence (P01116 1-169 isoform P01116-2 G12D limits assumed): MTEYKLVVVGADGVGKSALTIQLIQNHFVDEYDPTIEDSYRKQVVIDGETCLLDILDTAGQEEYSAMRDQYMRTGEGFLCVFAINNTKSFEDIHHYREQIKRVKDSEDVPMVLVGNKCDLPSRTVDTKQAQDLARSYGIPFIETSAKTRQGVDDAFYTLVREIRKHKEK
T4 sequence (P01116 1-169 isoform P01116-2 limits assumed): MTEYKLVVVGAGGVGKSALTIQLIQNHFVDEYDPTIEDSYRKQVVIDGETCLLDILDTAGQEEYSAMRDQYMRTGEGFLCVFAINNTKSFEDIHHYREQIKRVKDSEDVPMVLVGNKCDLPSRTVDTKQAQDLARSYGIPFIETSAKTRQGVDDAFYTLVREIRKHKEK
T3 sequence (P01116 1-169 isoform P01116-2 G12R limits assumed): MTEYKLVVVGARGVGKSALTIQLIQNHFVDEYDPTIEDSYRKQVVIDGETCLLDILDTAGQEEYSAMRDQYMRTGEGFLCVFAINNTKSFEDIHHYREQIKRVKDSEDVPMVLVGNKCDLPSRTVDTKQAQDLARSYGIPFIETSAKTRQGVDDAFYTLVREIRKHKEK
T2 sequence (P01116 1-169 isoform P01116-2 G12V limits assumed): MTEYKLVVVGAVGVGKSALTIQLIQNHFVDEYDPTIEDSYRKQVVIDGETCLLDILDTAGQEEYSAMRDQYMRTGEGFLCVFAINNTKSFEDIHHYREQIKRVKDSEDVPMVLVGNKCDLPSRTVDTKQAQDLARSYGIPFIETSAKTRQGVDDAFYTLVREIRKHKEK

SMILES | IC50 [1] [µM] | IC50 [2] [µM] | IC50 [3] [µM] | IC50 [4] [µM] | IC50 ([5]; 1 h) [µM] | IC50 [5] [µM]
COc1nc(N2CC3CCC(C2)N3)c2cc(C(F)(F)F)c(-c3ccc(F)c4sc(N)c(C#N)c34)c(F)c2n1 [Compound 1] | 1 to 10 | > 10 | > 10 | 1 to 10 | ≤ 0.1 | –
N#Cc1c(N)sc2c(F)ccc(-c3c(C(F)(F)F)cc4c(N5CC6CCC(C5)N6)nc(OCC5CCCCC5)nc4c3F)c12 [Compound 2] | > 10 | > 10 | > 10 | > 10 | – | –
CCCOc1nc(N2CC3CCC(C2)N3)c2cc(C(F)(F)F)c(-c3ccc(F)c4sc(N)c(C#N)c34)c(F)c2n1 [Compound 3] | 1 to 10 | > 10 | > 10 | 1 to 10 | 0.1 to 1 | –
N#Cc1c(N)sc2c(F)ccc(-c3c(C(F)(F)F)cc4c(N5CC6CCC(C5)N6)nc(N5CC[C@H](O)C5)nc4c3F)c12 [Compound 4] | 1 to 10 | > 10 | > 10 | 1 to 10 | 0.1 to 1 | –
N#Cc1c(N)sc2c(F)ccc(-c3c(C(F)(F)F)cc4c(N5C[C@H]6CC[C@@H](C5)N6)ncnc4c3F)c12 [Compound 5, 4-(4-((1R,5S)-3,8-diazabicyclo[3.2.1]octan-3-yl)-8-fluoro-6-(trifluoromethyl)quinazolin-7-yl)-2-amino-7-fluorobenzo[b]thiophene-3-carbonitrile] | 1 to 10 | > 10 | > 10 | 1 to 10 | ≤ 0.1 | –
N#Cc1c(N)sc2c(F)ccc(-c3c(C(F)(F)F)cc4c(N5CC6CCC(C5)N6)nc(N5CC[C@@H](O)C5)nc4c3F)c12 [Compound 6] | 1 to 10 | > 10 | > 10 | 1 to 10 | 0.1 to 1 | –
N#Cc1c(N)sc2c(F)ccc(-c3c(C(F)(F)F)cc4c(N5CC6CCC(C5)N6)nc(OCC5(O)CC5)nc4c3F)c12 [Compound 7] | 1 to 10 | > 10 | > 10 | > 10 | 0.1 to 1 | –
CC(C)Oc1nc(N2CC3CCC(C2)N3)c2cc(C(F)(F)F)c(-c3ccc(F)c4sc(N)c(C#N)c34)c(F)c2n1 [Compound 8] | 1 to 10 | > 10 | > 10 | 1 to 10 | 0.1 to 1 | –
CNc1nc(N2CC3CCC(C2)N3)c2cc(C(F)(F)F)c(-c3ccc(F)c4sc(N)c(C#N)c34)c(F)c2n1 [Compound 9] | 1 to 10 | > 10 | > 10 | 1 to 10 | 0.1 to 1 | –
CN(C)c1nc(N2C[C@H]3CC[C@@H](C2)N3)c2cc(C(F)(F)F)c(-c3ccc(F)c4sc(N)c(C#N)c34)c(F)c2n1 [Compound 10, 4-(4-((1R,5S)-3,8-diazabicyclo[3.2.1]octan-3-yl)-2-(dimethylamino)-8-fluoro-6-(trifluoromethyl)quinazolin-7-yl)-2-amino-7-fluorobenzo[b]thiophene-3-carbonitrile] | 1 to 10 | > 10 | > 10 | > 10 | > 1 | –
N#Cc1c(N)sc2c(F)ccc(-c3c(C(F)(F)F)cc4c(N5CC6CCC(C5)N6)nc(OC5CC(O)C5)nc4c3F)c12 (stereo not drawn) [Compound 11] | 1 to 10 | > 10 | > 10 | > 10 | 0.1 to 1 | –
N#Cc1c(N)sc2c(F)ccc(-c3c(C(F)(F)F)cc4c(N5CC6CCC(C5)N6)nc(OC5CC(O)C5)nc4c3F)c12 (stereo not drawn) [Compound 12] | 1 to 10 | > 10 | > 10 | 1 to 10 | – | 0.1 to 1
N#Cc1c(N)sc2c(F)ccc(-c3c(C(F)(F)F)cc4c(N5CC6CCC(C5)N6)nc(OCCc5ccccc5)nc4c3F)c12 [Compound 13] | 1 to 10 | > 10 | > 10 | > 10 | 0.1 to 1 | –
N#Cc1c(N)sc2c(F)ccc(-c3c(C(F)(F)F)cc4c(N5CC6CCC(C5)N6)nc(N5CCC5)nc4c3F)c12 [Compound 14] | 1 to 10 | > 10 | > 10 | 1 to 10 | 0.1 to 1 | –
COCCOc1nc(N2CC3CCC(C2)N3)c2cc(C(F)(F)F)c(-c3ccc(F)c4sc(N)c(C#N)c34)c(F)c2n1 [Compound 15] | 1 to 10 | > 10 | > 10 | 1 to 10 | ≤ 0.1 | –
N#Cc1c(N)sc2c(F)ccc(-c3c(C(F)(F)F)cc4c(N5CC6CCC(C5)N6)nc(N5CC(O)C5)nc4c3F)c12 [Compound 16] | 1 to 10 | > 10 | > 10 | 1 to 10 | 0.1 to 1 | –
N#Cc1c(N)sc2c(F)ccc(-c3c(C(F)(F)F)cc4c(N5CC6CCC(C5)N6)nc(OC5CCC5)nc4c3F)c12 [Compound 17] | 1 to 10 | > 10 | > 10 | 1 to 10 | 0.1 to 1 | –
N#Cc1c(N)sc2c(F)ccc(-c3c(C(F)(F)F)cc4c(N5CC6CCC(C5)N6)nc(OCC5(CO)CC5)nc4c3F)c12 [Compound 18] | 0.1 to 1 | 1 to 10 | 1 to 10 | 1 to 10 | ≤ 0.1 | –
N#Cc1c(N)sc2c(F)ccc(-c3c(C(F)(F)F)cc4c(N5CC6CCC(C5)N6)nc(OCCc5cn[nH]c5)nc4c3F)c12 [Compound 19] | 1 to 10 | > 10 | > 10 | 1 to 10 | ≤ 0.1 | –
N#Cc1c(N)sc2c(F)ccc(-c3c(C(F)(F)F)cc4c(N5CC6CCC(C5)N6)nc(N5CCCC5)nc4c3F)c12 [Compound 20] | 1 to 10 | > 10 | > 10 | 1 to 10 | 0.1 to 1 | –
